The values that follow come from article PMC8950868, “Identifying Human PTP1B Enzyme Inhibitors from Marine Natural Products: Perspectives for Developing of Novel Insulin-Mimetic Drugs” (Pharmaceuticals, 2022).

Entries after “also recorded” stand apart in the source; their conditions may differ.

Experiment [1] relates to C2C12 cells. In words: Insulin signalling pathway analysis (western blot of pIR and pAkt). To be noted: for Effect on insulin signalling pathway: differentiated C2C12 cells. It is filed as cell-based, murine. The protocol:
C2C12 cells were plated on P35 dishes, grown until 80% confluence and then incubated in the presence of differentiation medium (DMEM-high glucose (4500 mg/L) supplemented with 2% Horse serum (HS, Euroclone), 2 mM glutamine, 100 U/mL penicillin, and 100 μg/mL streptomycin) for 4 days. After this time, cell plates were washed with PBS and cells stimulated with 10 nM insulin, compound 3 or insulin-compound 3 combination for 30 min. After cell plates were washed with cold PBS solution and lysed using 1X Leammli sample buffer. Samples were store at 4 °C for 15 min and then protein solutions were collected and boiled for 5 min. Proteins were analysed by SDS-PAGE and then transferred on a PVDF membrane by western blot. Phosphorylation status of insulin receptor and the kinase Akt was evaluated using specific antibodies (pIR β subunit, Y1162/1163 (sc-25103-R) and β-actin, clone C-4 (sc-47778) were from Santa Cruz Biotechnology (Santa Cruz, CA, USA); IR β subunit, clone CT-3 (MABS65) was from Merck-Millipore (Burlington, MA, USA). Akt (9272S) and p-Akt (9271S) antibodies were from Cell Signalling Technology (Danvers, MA, USA). Secondary antibodies were from Santa Cruz Biotechnology (Santa Cruz, CA, USA). Detection was performed using Clarity western ECL substrates (Bio-Rad Laboratories, Inc.).
Figure 12 Effect of compound 3 on insulin signalling pathway. C2C12 cells were incubated with compound 3 (20 µM final concentration) for 30 min, in the presence or not of insulin (10 nM). After that, cells were lysed, and cellular extracts were analysed to evaluate the phosphorylation status of IR and Akt. (A), western blot image; (B,C), quantitation of western blot carried out using Kodak MI software. Data were normalized respect to control sample. All tests were carried out in triplicate. Ctr: control experiment; Ins: cells treated with 10 nM insulin; 3: cells treated with compound 3 (20 µM); 3 + Ins, cells treated with insulin and compound 3. Statistical analysis was carried out using one way ANOVA followed by Tukey’s HSD test for pairwise comparisons. * p < 0.05.
A general note: A western blot detects proteins with antibodies after separation by electrophoresis.

Experiment [2] deals with T1, PTP1B (Homo sapiens, UniProt P18031).
T1 construct: human recombinant PTP1B (1–302)
T1 sequence (P18031 1-302): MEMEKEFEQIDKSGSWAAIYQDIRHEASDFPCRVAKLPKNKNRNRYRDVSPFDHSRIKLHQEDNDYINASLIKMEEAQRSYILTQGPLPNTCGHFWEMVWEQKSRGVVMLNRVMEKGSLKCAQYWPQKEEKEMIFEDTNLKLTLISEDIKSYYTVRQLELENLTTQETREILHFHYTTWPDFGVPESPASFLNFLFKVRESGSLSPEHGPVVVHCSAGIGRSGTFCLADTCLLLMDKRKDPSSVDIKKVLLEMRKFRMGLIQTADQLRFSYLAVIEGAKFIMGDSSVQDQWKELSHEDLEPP
In words: Dilution (reversibility) assay with PTP1B. To be noted: 50 µM, 1 h at 37 °C, then diluted 500 fold. Format: biochemical. The protocol: A dilution test was carried out to evaluate if the compound behaves as reversible or irreversible inhibitor of PTP1B. Briefly, an aliquot of the enzyme was diluted with different concentration of inhibitor and the samples incubated at 37 °C for 1 h. After this time, an aliquot of these samples was diluted 500 times in the assay buffer containing 2.5 mM p-NPP, to evaluate whether the enzyme is able to recover its activity since the final concentration of inhibitor is now far away from its IC50 value. Control test was carried out diluting the enzyme with an equal volume of deionised water. All tests were performed in triplicate.
Figure 4 Dilution assay. To evaluate the mechanism of action of the compounds, a reversibility assay was carried out. The PTP1B was incubated in the presence of the saturating concentration of each compound (50 µM) for 1 h at 37 °C. Then, an aliquot of enzyme was diluted 500 folds in the assay buffer to evaluate the residual activity of the enzyme. Tests were carried out in triplicate. Data represent the mean value ± SD.

The target in experiment [3] is T2, human recombinant PTP1B (1–302) (Homo sapiens, UniProt P18031).
T2 construct: human recombinant PTP1B (1–302)
T2 sequence (P18031 1-302): T1 sequence (P18031 1-302)
In words: PTP1B enzymatic assay (p-NPP hydrolysis; preliminary screening and IC50). It is filed as biochemical. As to conditions: for Effect on PTP1B activity in preliminary screening: 20 µM of each compound, 30 min; for IC50: 2.5 mM p-NPP, pH 7.0, 37 °C, mean ± SD (n = 3), read-out: IC50 values determined on PTP1B. The protocol: We performed enzymatic assays as previously described. For each assay, an aliquot of human recombinant PTP1B (1–302) was added in the assay buffer (0.075 M β,β-dimethylglutarate pH 7.0 containing 1 mM EDTA, 0.1 mM DTT and a p-nitrophenylphosphate (p-NPP) (Chemcruz, Santa Cruz Biotechnology (Santa Cruz, CA, USA)). The reactions were performed at 37 °C in a final volume of 1 mL. After adequate time (30 min) of incubation, the reactions were stopped adding 2 mL of 0.1 M KOH in each sample. The released amount of p-nitrophenol, product of the reaction, was determined by measuring the absorbance at 400 nm in a 1 cm pathlength cuvette.
The IC50 value of compounds against PTP1B was determined by measuring the hydrolysis rate of the enzyme in the presence of a fixed substrate concentration (2.5 mM p-NPP) and increasing inhibitor concentrations (generally 14–16 different concentrations). Each test was carried out in triplicate. Experimental data were normalized respect to control samples and then fitted using a non-linear fitting software, using the following equation: Vi/V0=Max−Min/1+x/IC50^slope+Min where the Vi/V0 value represents the relative activity calculated in presence of each inhibitor concentration; the maximum and minimum value of the activity are represented by “Max” and “Min”, respectively; “x” is the concentration of the inhibitor; IC50 is the inhibitor concentration able to decrease the enzymatic activity up to 50%; “slope” represents the slope of the curve in the transition zone.
Figure 2 Preliminary screening assay on PTP1B. All assays were started by diluting an aliquot of PTP1B in the assay solution containing substrate alone (control test) or substrate and an aliquot of each compound (20 µM, final concentration). After 30 min, the reactions were stopped by adding a concentrated KOH solution. The enzyme activity was determined by measuring the amount of p-nitrophenol that was released in each sample using a spectrophotometer. Data obtained were normalized respect to control sample. […] Statistical analysis was carried out using one way ANOVA followed by Tukey’s HSD test for pairwise comparisons. Statistics have been drawn on raw data and compare samples to control (Ctr). * p < 0.05; ** p < 0.01.
Figure 3 Determination of the IC50 values with compounds 3, 8a, 8b, 9a and 9b. An aliquot of PTP1B enzyme was diluted in the presence of increasing concentration of the compounds. The activity of PTP1B was determined by measuring the absorbance of the sample at 400 nm, using a spectrophotometer. Data obtained were normalized respect to the control sample and analysed using a non-linear fitting software.

The mark [4] stands for this setting: 20 µM compound + 10 nM insulin, versus insulin alone.
The mark [5] stands for this setting: 20 µM compound alone, 30 min, versus control cells.

As a reminder, the IC50 is the point on the concentration scale where inhibition reaches its midpoint. Regarding `CCCCC[C@@H](OP(=O)(O)O)[C@@H](O)CC[C@H](CCCC)OC(C)=O` (relative stereo) [Compound 8a], the “Effect on insulin signalling pathway” value in experiment [1] was “did not improve the insulin signalling pathway; also recorded: completely inactive”. Moreover, the “Reversibility of PTP1B inhibition” value in experiment [2] was “reversible inhibitors”. Besides, in experiment [3], the “Effect on PTP1B activity in preliminary screening” value is recorded as “reducing PTP1B activity” and the IC50 was 16 ± 2 µM.

Regarding `CCCCCCCCCCCCCCC(OP(=O)(O)O)C(O)CCCO` (stereo not drawn) [Compound 3], in experiment [1] (setting [4]), the “Phosphorylation level of Akt” value is “not statistically different” and the “Phosphorylation level of insulin receptor (IR)” value is listed as “not statistically different”. For the same compound, in experiment [1] (setting [5]), the “Phosphorylation level of Akt” value is reported as “increased with respect to control cells” and the “Phosphorylation level of insulin receptor (IR)” value is listed as “increased with respect to control cells”. The “Effect on insulin signalling pathway” value in experiment [1] is reported as “acts as an insulin-mimetic agent; also recorded: evident insulin-mimetic activity”. Also, the “Reversibility of PTP1B inhibition” value in experiment [2] is “reversible inhibitors”. Also, in experiment [3], the “Effect on PTP1B activity in preliminary screening” value was “reducing PTP1B activity” and the half-maximal inhibitory concentration (IC50) is 6.7 ± 3.3 µM.
